Reference: patent US6583145B1, “Thio-oxindole derivatives” (Wyeth, priority 1999, dated 2003)

System: not given
Experiment: not given
Conditions: not given

Row | melting point | SMILES
1 | > 231 °C (dec.) | N#Cc1cccc(-c2ccc3c(c2)C2(CCCCC2)C(=S)N3)c1 [Example 2, 3-(1′,2′-Dihydro-2′-thioxospiro[cyclohexane-1,3′-[3H]indol]-5′-yl)benzonitrile]
2 | 188 to 191 °C | CC1(C)C(=S)Nc2ccc(-c3coc(C#N)c3)cc21 [Example 18, 4-(3,3-Dimethyl-2-thioxo-2,3-dihydro-1H-indol-5-yl)-2-furonitrile]
3 | 205 to 208 °C | ON=C1Nc2ccc(-c3ccc(F)cc3)cc2C12CCCCC2 [Example 47, 5′-(4-Fluorophenyl)spiro[cyclohexane-1,3′-[3H]indol]-2′(1′H)-one Oxime]
4 | 101 to 104 °C | COc1cccc(-c2ccc3c(c2)C2(CCCCC2)C(=NO)N3)c1 [Example 49, 5′-(3-Methoxyphenyl)spiro[cyclohexane-1,3′-[3H]indol]-2′(1′H)-one Oxime]
5 | 198 to 200 °C | N#Cc1cccc(-c2ccc3c(c2)C2(CCCCC2)C(=NO)N3)c1 [Example 51, 5′-(3-Cyanophenyl)spiro[cyclohexane-1,3′-[3H]indol]-2′(1′H)-one Oxime]

System: rat uterine decidualization
Experiment: Rat decidualization assay
Conditions: s.c.; average of the dose-response curves

Row | Estimated average EC50 (decidual response) | SMILES
6 | 0.10 mg/kg | C#C[C@]1(O)CC[C@H]2[C@@H]3CCC4=CC(=O)CC[C@@H]4[C@H]3C(=C)C[C@@]21CC [3-Ketodesogestrel]
